Measured values from PubChem BioAssay AID489023 (Sanford-Burnham Center for Chemical Genomics, 2010).
Calls of active or inactive are those of the source. How the calls were made is not given here.

System: 697B cells, BCR-induced NF-kB luciferase reporter luminescence
Assay: inhibitors of BCR-induced NF-kB activation, dose response, 697B cells, luciferase luminescence (AID 489023)

Question: For `CC(C)(C)c1ccc(-n2ncc3c2CCCC3NC(=O)C2(C(N)=O)CC2)cc1` (configuration not stated), which IC50 is on record?
Answer: > 80 µM (inactive)

Question: `Cc1[nH]c2ccccc2c1/C=N/Nc1nc(Nc2ccc(F)cc2)nc(N2CCOCC2)n1` was tested. Which IC50 did it give?
Answer: 1.22 µM

Question: How did the IC50 turn out when `COc1ccc(/C=C\C(=O)O[C@@H]2C(O)C(O[C@@H]3OC(C)[C@H](O[C@@H]4OCC(O[C@H]5O[C@H](CO)[C@@H](O)C(O)C5O)C(O)C4O)C(O)C3O)[C@H](OC(=O)[C@]34CCC(C)(C)C[C@@H]3C3=CCC5[C@@]6(C)CC(O)C(O[C@@H]7OC(CO)C(O)[C@H](O)[C@H]7O)[C@@](C)(C(=O)O)C6CC[C@@]5(C)[C@]3(CO)CC4)O[C@H]2C)cc1` (some centres not stated) was run?
Answer: 19.8 µM

Question: `CC(C)N1C(=O)S/C(=C/c2ccc3c(c2)n(C)c(=O)n3C)C1=O` was tested. Which IC50 did it give?
Answer: > 80 µM (inactive)

Question: With `COc1ccc(/C=C2/SC(=S)N(CCCC(=O)Nc3ccc(O)cc3)C2=O)cc1` as the compound, how does the IC50 read?
Answer: 0.44 µM

Question: How did the IC50 turn out when `CC1CCN(C(=O)CCCOc2cc(=O)n(C)c3ccccc23)CC1` was run?
Answer: > 80 µM (inactive)

Question: Which IC50 does the source give for `CCn1c(=O)cc(SCC(=O)N2CCCCC2)c2ccccc21` here?
Answer: > 80 µM (inactive)

Question: How did the IC50 turn out when `O=C(CCCN1C(=O)/C(=C/c2ccccc2Cl)SC1=S)Nc1cccnc1` was run?
Answer: 1.75 µM

Question: With `CCN(CC(=O)Nc1c(F)cccc1F)C(=O)c1cc(S(=O)(=O)N(C)C)ccc1N1CCCC1` as the compound, how does the IC50 read?
Answer: 12.2 µM

Question: How did the IC50 turn out when `Cn1c(=O)cc(OCCCC(=O)NCc2ccccn2)c2ccccc21` was run?
Answer: > 80 µM (inactive)

Question: Which IC50 does the source give for `Cc1cnc(NC(=O)Nc2ccc(Cl)cc2)s1` here?
Answer: > 80 µM (inactive)

Question: With `CC(C)C(=O)Nc1ccc(NC(=O)c2ccc3c(c2)OCO3)cc1` as the compound, how does the IC50 read?
Answer: 17.2 µM

Question: `CCOC(=O)Cc1csc(NC(=S)NC(=O)c2ccc(Cl)cc2)n1` was tested. Which IC50 did it give?
Answer: 30.6 µM (inactive)

Question: Which IC50 does the source give for `CCCCCC/C=C/c1ccc(OC)c([C@H]2[C@H]3C=CC[C@@H](C)[C@@H]3C(=O)N2Cc2ccccc2)c1` here?
Answer: > 80 µM (inactive)

Question: Which IC50 does the source give for `CCOC(=O)/C=C(\C)Sc1cc(=O)oc2ccccc12` here?
Answer: 1.61 µM

Question: `COc1ccccc1/C=C1\SC(=S)N(CCC(=O)NC2=NCCS2)C1=O` was tested. Which IC50 did it give?
Answer: > 80 µM (inactive)

Question: How did the IC50 turn out when `CCCCn1c2c(c(=N)c3ccccc31)CCC2` was run?
Answer: > 80 µM (inactive)

Question: `COc1ccc(/C=C2/SC(=S)N(CCCC(=O)Nc3cccc(O)c3)C2=O)cc1` was tested. Which IC50 did it give?
Answer: 3.88 µM

Question: With `NC(=S)N=Nc1c(O)n(Cc2ccccc2)c2ccccc12` as the compound, how does the IC50 read?
Answer: 16.3 µM

Question: With `COc1ccc(C(=O)Nc2nnc(Cc3cccs3)s2)cc1OC` as the compound, how does the IC50 read?
Answer: > 80 µM (inactive)

Question: Which IC50 does the source give for `Cn1c(=O)n(C)c2cc(C(=O)Nc3ccc4c(c3)OCO4)ccc21` here?
Answer: 35.2 µM (inactive)

Question: `CCOc1ccc(/C=C2\SC(=S)N(CCCC(=O)NCCCN3CCOCC3)C2=O)cc1` was tested. Which IC50 did it give?
Answer: 0.43 µM

Question: `COc1ccc(-n2c(-c3ccc(Cl)cc3)c[n+]3c2CCc2ccccc2-3)cc1` was tested. Which IC50 did it give?
Answer: > 80 µM (inactive)

Question: Which IC50 does the source give for `COc1ccc(/C=C2\SC(=S)N(CCC(=O)Nc3cccc(O)c3)C2=O)cc1` here?
Answer: > 80 µM (inactive)

Question: How did the IC50 turn out when `CCOc1ccc(-c2cc(CCCC(=O)NCc3ccc(C)cc3)no2)cc1` was run?
Answer: > 80 µM (inactive)

Question: With `O=C(Nc1nc2nc(-c3ccccc3)cc(-c3ccccc3)n2n1)c1ccco1` as the compound, how does the IC50 read?
Answer: 48.3 µM (inactive)

Question: Which IC50 does the source give for `Cc1ccc2nc(NC(=O)CSCC(=O)OCC(=O)c3ccc(Br)cc3)sc2c1` here?
Answer: 3.6 µM

Question: Which IC50 does the source give for `COc1cccc(Cn2nnc(C(=O)Nc3cc(Cl)ccc3OC)c2N)c1` here?
Answer: > 80 µM (inactive)

Question: Which IC50 does the source give for `CN1C(=O)CC(c2ccco2)Sc2ccccc21` (configuration not stated) here?
Answer: > 80 µM (inactive)

Question: `Cn1cnc([N+](=O)[O-])c1Sc1ccc([N+](=O)[O-])cc1` was tested. Which IC50 did it give?
Answer: 3.61 µM

Question: How did the IC50 turn out when `N=c1c(C(=O)NC2CCCC2)cc2c(=O)n3ccccc3nc2n1CCN1CCOCC1` was run?
Answer: > 80 µM (inactive)

Question: Which IC50 does the source give for `COc1ccc2nc(Sc3c([N+](=O)[O-])nc(C)n3Cc3ccccc3)[nH]c2c1` here?
Answer: 18.2 µM

Question: For `CCc1ccc(/C=C2/SC(=S)N(CCC(=O)Nc3cccc(C(=O)O)c3)C2=O)cc1`, which IC50 is on record?
Answer: > 80 µM (inactive)

Question: For `CN(CC1CCCO1)S(=O)(=O)c1ccc(C(=O)Nc2nc3cc4c(cc3s2)OCO4)cc1` (configuration not stated), which IC50 is on record?
Answer: > 80 µM (inactive)

Question: Which IC50 does the source give for `CCOc1ccc(-c2cc(CCCC(=O)NCc3ccco3)no2)cc1` here?
Answer: 6.57 µM

Question: For `Cc1nc2ccccn2c1C(=O)/C=C/c1cccc([N+](=O)[O-])c1`, which IC50 is on record?
Answer: 22.8 µM (inactive)

Question: How did the IC50 turn out when `O=C(Nc1cccc(Br)c1)c1ccc2c(c1)SC1=NS(=O)(=O)CCN12` was run?
Answer: 15.7 µM

Question: For `Cc1ccc(/C=C2\SC(=S)N(CCCC(=O)Nc3cc(C)on3)C2=O)cc1`, which IC50 is on record?
Answer: 34.3 µM (inactive)

Question: For `COc1ccc(/C=C2\SC(=S)N(CCC(=O)Nc3ccc(C(=O)O)cc3)C2=O)cc1`, which IC50 is on record?
Answer: > 80 µM (inactive)

Question: For `CNC(=O)c1cc(Nc2nnc(-c3ccc(O)cc3)c3ccccc23)ccc1OC`, which IC50 is on record?
Answer: > 80 µM (inactive)

Question: For `CN1C(=O)CSc2ccc(NC(=O)N3CCN(c4ccccc4)CC3)cc21`, which IC50 is on record?
Answer: 74 µM (inactive)

Question: With `CNC(=O)CCc1nc(-c2ccc(C(C)(C)C)cc2)no1` as the compound, how does the IC50 read?
Answer: < 0.16 µM

Question: Which IC50 does the source give for `CCN(CC(=O)Nc1c(F)cccc1F)C(=O)c1cc(S(=O)(=O)N2CCOCC2)ccc1N1CCCC1` here?
Answer: 12.7 µM

Question: Which IC50 does the source give for `COc1ccc(-n2c(-c3ccc(Br)cc3)c[n+]3c2CCc2ccccc2-3)cc1` here?
Answer: > 80 µM (inactive)

Question: How did the IC50 turn out when `CCOc1ccc(-n2c(SCC(=O)Nc3ccc4c(c3)OCCO4)nc3c(c2=O)SCC3)cc1` was run?
Answer: 11.7 µM

Question: Which IC50 does the source give for `O=C(CCl)N(c1ccc(Cl)cc1)c1c[nH]c2ccccc12` here?
Answer: 0.27 µM

Question: Which IC50 does the source give for `COc1ccc(C(=O)N/N=C/c2ccc(OC)c(CN3CCCc4ccccc43)c2)cc1` here?
Answer: > 80 µM (inactive)

Question: With `CC(C)(O)/C=C/C(=O)[C@](C)(O)C1[C@H](O)C[C@@]2(C)C3CC=C4C(C[C@H](O)[C@@H](O)C4(C)C)[C@]3(C)C(=O)C[C@]12C` (some centres not stated) as the compound, how does the IC50 read?
Answer: 35.1 µM (inactive)

Question: With `COc1ccccc1/C=C1\SC(=S)N(CCC(=O)Nc2cccc(O)c2)C1=O` as the compound, how does the IC50 read?
Answer: > 80 µM (inactive)

Question: For `COc1cccc(N2CCN(c3ncnc4c3[nH]c3ccc(F)cc34)CC2C)c1` (configuration not stated), which IC50 is on record?
Answer: 0.79 µM

Question: How did the IC50 turn out when `O=C(Nc1cccc(S(=O)(=O)Nc2ccc(Cl)cc2)c1)c1ccc(Cl)nc1` was run?
Answer: 41.6 µM (inactive)

Question: For `COc1ccc(-c2noc(N3CCC(C(=O)Nc4ccc(F)cc4F)CC3)n2)cc1`, which IC50 is on record?
Answer: > 80 µM (inactive)
